Test results published in PubChem BioAssay (NCI).
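How tested: cells in 96-well plates exposed to compound for 48 hours at five concentrations. TGI: concentration producing complete growth inhibition.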

Assays:
Assay in all cases: inhibition of tumour cell growth, NCI panel, 48 h
HCC-2998 colon = test system: HCC-2998 colon
CAKI-1 renal = test system: CAKI-1 renal
KM12 colon = test system: KM12 colon
DU-145 prostate = test system: DU-145 prostate
SK-MEL-5 melanoma = test system: SK-MEL-5 melanoma
U251 CNS = test system: U251 CNS
MDA-MB-231 breast = test system: MDA-MB-231 breast
OVCAR-8 ovarian = test system: OVCAR-8 ovarian
BT-549 breast = test system: BT-549 breast
NCI-H226 lung = test system: NCI-H226 lung
MALME-3M melanoma = test system: MALME-3M melanoma
UACC-257 melanoma = test system: UACC-257 melanoma
SK-OV-3 ovarian = test system: SK-OV-3 ovarian
PC-3 prostate = test system: PC-3 prostate
UACC-62 melanoma = test system: UACC-62 melanoma
SF-268 CNS = test system: SF-268 CNS
HCT-116 colon = test system: HCT-116 colon
MOLT-4 leukemia = test system: MOLT-4 leukemia
SF-539 CNS = test system: SF-539 CNS
ACHN renal = test system: ACHN renal
RXF 393 renal = test system: RXF 393 renal
NCI/ADR-RES ovarian = test system: NCI/ADR-RES ovarian
T-47D breast = test system: T-47D breast
HCT-15 colon = test system: HCT-15 colon
SK-MEL-28 melanoma = test system: SK-MEL-28 melanoma
SNB-19 CNS = test system: SNB-19 CNS
MDA-MB-435 = test system: MDA-MB-435
SN12C renal = test system: SN12C renal
COLO 205 colon = test system: COLO 205 colon
UO-31 renal = test system: UO-31 renal
HS 578T breast = test system: HS 578T breast
OVCAR-4 ovarian = test system: OVCAR-4 ovarian
OVCAR-3 ovarian = test system: OVCAR-3 ovarian
TK-10 renal = test system: TK-10 renal
OVCAR-5 ovarian = test system: OVCAR-5 ovarian
M14 melanoma = test system: M14 melanoma
MDA-N = test system: MDA-N
RPMI-8226 leukemia = test system: RPMI-8226 leukemia
A549 NSCLC = test system: A549 NSCLC
HOP-62 NSCLC = test system: HOP-62 NSCLC
SW-620 colon = test system: SW-620 colon
EKVX NSCLC = test system: EKVX NSCLC
NCI-H23 lung = test system: NCI-H23 lung
A498 renal = test system: A498 renal
SK-MEL-2 melanoma = test system: SK-MEL-2 melanoma
MCF7 breast = test system: MCF7 breast
SF-295 CNS = test system: SF-295 CNS
CCRF-CEM leukemia = test system: CCRF-CEM leukemia
SNB-75 CNS = test system: SNB-75 CNS
786-0 renal = test system: 786-0 renal
SR leukemia = test system: SR leukemia
HOP-92 NSCLC = test system: HOP-92 NSCLC
HT29 colon = test system: HT29 colon
LOX IMVI melanoma = test system: LOX IMVI melanoma
K-562 leukemia = test system: K-562 leukemia
IGROV1 ovarian = test system: IGROV1 ovarian
HL-60(TB) leukemia = test system: HL-60(TB) leukemia

Cc1cn(C2CC(O)C(Cn3cc(Cn4nc(Br)c(=O)[nH]c4=O)nn3)O2)c(=O)[nH]c1=O (centres undefined)
TGI (HCC-2998 colon): > 100 µM
TGI (CAKI-1 renal): > 100 µM
TGI (KM12 colon): > 100 µM
TGI (DU-145 prostate): > 100 µM
TGI (SK-MEL-5 melanoma): > 100 µM
TGI (U251 CNS): > 100 µM
TGI (MDA-MB-231 breast): > 100 µM
TGI (OVCAR-8 ovarian): > 100 µM
TGI (BT-549 breast): > 100 µM
TGI (NCI-H226 lung): > 100 µM
TGI (MALME-3M melanoma): > 100 µM
TGI (UACC-257 melanoma): > 100 µM
TGI (SK-OV-3 ovarian): > 100 µM
TGI (PC-3 prostate): > 100 µM
TGI (UACC-62 melanoma): > 100 µM
TGI (SF-268 CNS): > 100 µM
TGI (HCT-116 colon): > 100 µM
TGI (MOLT-4 leukemia): > 100 µM
TGI (SF-539 CNS): > 100 µM
TGI (ACHN renal): > 100 µM
TGI (RXF 393 renal): > 100 µM
TGI (NCI/ADR-RES ovarian): > 100 µM
TGI (T-47D breast): > 100 µM
TGI (HCT-15 colon): > 100 µM
TGI (SK-MEL-28 melanoma): > 100 µM
TGI (SNB-19 CNS): > 100 µM
TGI (MDA-MB-435): > 100 µM
TGI (SN12C renal): > 100 µM
TGI (COLO 205 colon): > 100 µM
TGI (UO-31 renal): > 100 µM
TGI (HS 578T breast): > 100 µM
TGI (OVCAR-4 ovarian): > 100 µM
TGI (OVCAR-3 ovarian): > 100 µM
TGI (TK-10 renal): > 100 µM
TGI (OVCAR-5 ovarian): > 100 µM
TGI (M14 melanoma): > 100 µM
TGI (MDA-N): > 100 µM
TGI (RPMI-8226 leukemia): > 100 µM
TGI (A549 NSCLC): > 100 µM
TGI (HOP-62 NSCLC): > 100 µM
TGI (SW-620 colon): > 100 µM
TGI (EKVX NSCLC): > 100 µM
TGI (NCI-H23 lung): > 100 µM
TGI (A498 renal): > 100 µM
TGI (SK-MEL-2 melanoma): > 100 µM
TGI (MCF7 breast): > 100 µM
TGI (SF-295 CNS): > 100 µM
TGI (CCRF-CEM leukemia): 14.3 µM
TGI (SNB-75 CNS): > 100 µM

N#Cc1nc(Cc2cccs2)oc1N
TGI (CAKI-1 renal): > 100 µM
TGI (KM12 colon): > 100 µM
TGI (DU-145 prostate): > 100 µM
TGI (SK-MEL-5 melanoma): > 100 µM
TGI (U251 CNS): > 100 µM
TGI (MDA-MB-231 breast): > 100 µM
TGI (OVCAR-8 ovarian): > 100 µM
TGI (UACC-257 melanoma): > 100 µM
TGI (SK-OV-3 ovarian): > 100 µM
TGI (PC-3 prostate): > 100 µM
TGI (UACC-62 melanoma): > 100 µM
TGI (786-0 renal): > 100 µM
TGI (SF-268 CNS): > 100 µM
TGI (HCT-116 colon): > 100 µM
TGI (MOLT-4 leukemia): > 100 µM
TGI (ACHN renal): > 100 µM
TGI (RXF 393 renal): > 100 µM
TGI (HCT-15 colon): > 100 µM
TGI (SK-MEL-28 melanoma): > 100 µM
TGI (SR leukemia): > 100 µM
TGI (SNB-19 CNS): > 100 µM
TGI (MDA-MB-435): > 100 µM
TGI (SN12C renal): > 100 µM
TGI (UO-31 renal): > 100 µM
TGI (HS 578T breast): > 100 µM
TGI (TK-10 renal): > 100 µM
TGI (HOP-92 NSCLC): > 100 µM
TGI (OVCAR-5 ovarian): > 100 µM
TGI (M14 melanoma): > 100 µM
TGI (HT29 colon): > 100 µM
TGI (MDA-N): > 100 µM
TGI (RPMI-8226 leukemia): > 100 µM
TGI (A549 NSCLC): > 100 µM
TGI (HOP-62 NSCLC): > 100 µM
TGI (SW-620 colon): > 100 µM
TGI (EKVX NSCLC): > 100 µM
TGI (LOX IMVI melanoma): > 100 µM
TGI (A498 renal): > 100 µM
TGI (SK-MEL-2 melanoma): > 100 µM
TGI (MCF7 breast): > 100 µM
TGI (CCRF-CEM leukemia): > 100 µM
TGI (SNB-75 CNS): > 100 µM
TGI (K-562 leukemia): > 100 µM
TGI (IGROV1 ovarian): > 100 µM
TGI (HL-60(TB) leukemia): > 100 µM
